Measurements taken from article PMC10017027, “Design and Synthesis of Novel HIV-1 NNRTIs with Bicyclic Cores and with Improved Physicochemical Properties” (Journal of Medicinal Chemistry, 2023).
Values after ≈ are worked out from the molar mass of the structure shown. Read-outs that look alike come from different tables or passages of the source.

Legend:
in vitro = type: cell-based; settings: human
Method: (§1) The prepared compounds were tested for their anti-HIV-1 activity (Table 1). A viral cytopathic effect assay in MT-4 cells with HIV-1 IIIB virus was used to determine compound potency (EC50, 50% cell viability) in protecting virus induced cell killing. Compound cytotoxicity was assessed in MT-4 cells in the absence of virus (CC50, 50% cytotoxicity). […] ETV contains bromo and amino substitutions on the DAPY core. […] Likely, with the smaller cyano arm I in 1, 3, and 5, the cores could be further elaborated to optimize the compound position in the pocket and to improve potency.
(§2) Compounds were tested in a high-throughput 384-well assay format for their ability to inhibit the virus replication-induced cytopathic effect in MT-4 cell cultures acutely infected with HIV-1 (IIIB strain), HXB2, HXB2-K103N, and HXB2-Y181C. Compounds were serially diluted (1:3) in DMSO on 384-well polypropylene plates and further diluted 200-fold into complete RPMI media (10% FBS, 1% P/S) using Biotek Micro Flow and an Agilent ECHO acoustic dispenser. Each plate contained up to eight test compounds, with negative (no drug control) and 5 μM AZT positive controls. MT-4 cells were further diluted in complete RPMI media and added to each plate using a Micro-Flo dispenser. After five days of incubation in a humidified and temperature-controlled incubator (37 °C), Cell Titer Glo (Promega) was added to the assay plates to quantify the amount of […]. EC50 and CC50 values were defined as the compound concentration that causes a 50% decrease in luminescence signal and were calculated using a sigmoidal dose-response model to generate curve fits.

HIV-1 (IIIB strain) = assay: MT-4 antiviral cytopathic effect assay, HIV-1 IIIB; type: cell-based; settings: HIV-1 IIIB, WT, read-out: EC50 MT4
Method: (§3) The prepared compounds were tested for their anti-HIV-1 activity (Table 1). A viral cytopathic effect assay in MT-4 cells with HIV-1 IIIB virus was used to determine compound potency (EC50, 50% cell viability) in protecting virus induced cell killing. Compound cytotoxicity was assessed in MT-4 cells in the absence of virus (CC50, 50% cytotoxicity).
as §2

[1] = Solubility assessment, shake-flask method; type: physicochemical; settings: for solubility: shake-flask
Method: Compound solubility was measured at Analiza (Cleveland, OH) by the standard shake-flask method at pH 1.2 and 7.4 and quantitated by HPLC-UV.

HIV-1 HXB2 Y181C variant = assay: MT-4 antiviral cytopathic effect assay, HXB2-Y181C; type: cell-based
Method: as §1, §2

[2] = Predicted clearance in human liver microsomes; type: in vitro ADME; settings: pH 7.4, 1 μM compound, read-out: HLM CLint, pred (converted)
Method: Next, microsome stability was profiled in purified human liver microsomes (HLM).
Metabolic stability of compounds was assessed using HLM (Corning cat. 457117).[52] In this assay, 10 nL compounds at a concentration of 1 mM in 100% DMSO are dispensed into 384-well polypropylene plates using the Echo 550 acoustic liquid dispenser (Labcyte). Each plate contains 384 wells with a single test compound in each well.
A solution of HLM at 2 mg/mL in 100 mM K2HPO4/KH2PO4 pH 7.4 with 0.0225 mg/mL Alamethicin from Trichoderma viride (Sigma-Aldrich cat. A4665-10MG) was incubated on ice for 15 min. 5 μL of this solution was added to individual wells following 15 min incubation at room temperature; and supplemented with 5 μL NADPH Regenerating Solution of cofactors (Corning Gentest UGT Reaction Mix solutions A and B, cat. 451200 and 451220) containing 100 mM K2HPO4/KH2PO4 pH 7.4, 2.6 mM NADP^+, 6.6 mM glucose-6-phosphate, 6.6 mM MgCl2, 0.8 U/mL glucose-6-phosphate dehydrogenase, 0.1 mM sodium citrate, and 6.8 mM uridine diphosphate-glucuronic acid. The final concentration of analyte compounds at the beginning of the reactions was 1 μM. The reactions were incubated at 37 °C, and time points of 0, 5, 15, 30, 40, 50, 60, and 70 min were collected for further analysis. Background data were collected using reactions without analyte compounds.
Upon collection of the reaction time points, samples were quenched at the set time points with 30 μL of a solution of 72% acetonitrile, 8% methanol, 0.1% formic acid, 19.9% water, and labetalol as an internal standard (IS) at a concentration of 650 nM. Reaction plates were span in a centrifuge at a speed of 4000 rcf for 30 min and 4 °C, following a dilution of the 10 μL quenched reaction into 40 μL de-ionized water, yielding assay plates.
Samples were analyzed by a solid-phase extraction coupled with a quadrupole time-of-flight mass spectrometer, using an Agilent QToF 6530 RapidFire 360 system with C4 type A solid state cartridges. Analysis was performed in either positive or negative ionization modes. Mobile phases contained 0.1% formic acid in water for loading analytes onto solid state extraction cartridges, and 0.1% formic acid in acetonitrile for elution into the mass spectrometer in positive ionization mode, or 0.1% acetic acid in water for loading and 0.1% acetic acid in acetonitrile for extraction in negative ionization mode. Peak-area ratios of integrated counts for individual compounds to IS were plotted as a semi-logarithmic chart of log versus time. Initial, linear portion of decay was fitted to a linear regression equation to derive the half-time of a compound decay.
Pharmacological parameters for an analyte compound metabolism were calculated using the equations described in Table S2.
Table S2. Pharmacological parameters for an analyte compound metabolism were
calculated using the following equations:
Intrinsic Clearance (in Cl = ln 2
int, in vitro T1/2 ∗ Conc
Intrinsic Clearance Cl = Clint, in vitro ∗ Liver Mass ∗ Yield
Predicted Hepatic Cl = Clint ∗ QH
QH (Hepatic Blood Flow) = 1.3 L/hr/kg

HIV-1 HXB2 = assay: MT-4 antiviral cytopathic effect assay, HXB2 wild-type virus; type: cell-based; settings: Human immunodeficiency virus 1, MT4; HIV-1 HXB2 wild-type, MT-4 cells; read-out: EC50 HXB2
Method: as §3, §2

HIV-1 HXB2 K103N variant = assay: MT-4 antiviral cytopathic effect assay, HXB2-K103N; type: cell-based
Method: as §1, §2

[3] = MDCK permeability assay (A to B); type: in vitro ADME, Canine; settings: dog, MDCK
Source text: Compounds were further tested in a Madin–Darby Canine Kidney (MDCK) assay to evaluate their potential for oral absorption. […] Additionally, there was no trend for better permeability when comparing arm I versus arm II when matched with the same core. The size of the B ring had the greatest influence on Papp with the trend being five-membered > six-membered > seven-membered rings (Table 1).
cMdr1-KO cells were maintained in Dulbecco’s modified Eagle’s medium (DMEM) with sodium pyruvate and GlutaMax, supplemented with 1% Pen/Strep and 10% fetal bovine serum in an incubator set at 37 °C, 90% humidity, and 5% CO2. MDCKII- cMdr1-KO cells were grown to confluence over 3 days on 96-well PET plates with 1 μm pore size, polyester membrane (Corning 3392). Experiments were run using HBSS donor buffer from Invitrogen containing an additional 10 mM HEPES, 15 mM glucose, and 0.1% BSA adjusted to pH 7.4. The receiver well had HBSS buffer supplemented with 1% BSA, 10 mM HEPES, 15 mM glucose, and the pH was adjusted to 7.4. TEER values were read to test membrane integrity at the beginning of the assay. The experiment was started by the addition of dosing solutions containing test compounds. Samples were taken from the donor compartment at 0/120 min and from the receiver compartment at 120 min. Each compound was tested in two separate replicate wells. All samples were immediately collected in a 72:8:20 MeCN/MeOH:H2O mix to precipitate protein and stabilize the test compounds. Cells were dosed on the apical side to determine forward (A to B) permeability. To test for non-specific binding and compound instability, the total amount of drug was quantified at the end of the experiment and compared to the material present in the original dosing solution as a percentage of recovery. Samples were analyzed by RF-QToF.

[4] = Human immunodeficiency virus 1, IIIB, MT4, protects 50% of MT-4 cells against HIV-1-induced cell killing
[5] = supplement CSV, fold change vs HXB2

Cc1cc(CO)cc(C)c1-n1c(=O)[nH]c2cnc(Nc3ccc(C#N)cc3)nc21 [Compound 32, 4-({9-[4-(Hydroxymethyl)-2,6-dimethylphenyl]-8-oxo-8,9-dihydro-7H-purin-2-yl}amino)benzonitrile]
CC50 at 120 h (in vitro): 39700 nM
EC50 (HIV-1 (IIIB strain); [4]): 174 nM

Cc1cc(C=O)cc(C)c1N1CC(=O)Nc2cnc(Nc3ccc(C#N)cc3)nc21 [Compound 41, 4-{[8-(4-Formyl-2,6-dimethylphenyl)-6-oxo-5,6,7,8-tetrahydropteridin-2-yl]amino}benzonitrile]
CC50 at 120 h (in vitro): 14200 nM
EC50 (HIV-1 (IIIB strain); [4]): 76.7 nM

Cc1cc(CO)cc(C)c1N1CC(=O)Nc2cnc(Nc3ccc(C#N)cc3)nc21 [Compound 28, 4-({8-[4-(hydroxymethyl)-2,6-dimethylphenyl]-6-oxo-5,6,7,8-tetrahydropteridin-2-yl}amino)benzonitrile]
CC50 at 120 h (in vitro): 41600 nM
EC50 (HIV-1 (IIIB strain); [4]): 78.9 nM

Cc1cc(/C=C/C#N)cc(C)c1N1CCC(=O)Nc2cnc(Nc3ccc(C#N)cc3)nc21 [Compound 6, 4-[(9-{4-[(1E)-2-Cyanoeth-1-en-1-yl]-2,6-dimethylphenyl}-6-oxo-5H,6H,7H,8H,9H-pyrimido[4,5-b][1,4]diazepin-2-yl)amino]benzonitrile]
CC50 at 120 h (in vitro): 25800 nM
EC50 (HIV-1 (IIIB strain); [4]): 2.6 to 3 nM
EC50 (HIV-1 (IIIB strain); protects 50% of MT-4 cells against HIV-1-induced cell killing): 3 nM
solubility ([1]; HCl, pH 1.2, read-out: solubility HCl): 63.3 µM (≈ 27.6 µg/mL)
solubility ([1]; phosphate-buffered saline, pH 7.4, read-out: solubility PBS): 2.3 µM (≈ 1 µg/mL)
HCl sol ([1]; supplement CSV): 63.3 µM
PBS sol ([1]; supplement CSV): 2.3 µM
EC50 (HIV-1 HXB2 Y181C variant; Human immunodeficiency virus 1, HXB2, read-out: EC50 Y181C): 18.3 nM
Y181C (FC) (HIV-1 HXB2 Y181C variant; fold change: ratio of potency against HXB2 Y181C and parental HXB2): 6.5
Y181C (FC) (HIV-1 HXB2 Y181C variant; [5]): 6.5
CLint scaled at 1.167 h, 1 µM [2]: 12 mL/min/kg
EC50 (HIV-1 HXB2): 2.8 nM
EC50 (HIV-1 HXB2 K103N variant; Human immunodeficiency virus 1, HXB2, read-out: EC50 K103N): 4.8 nM
K103N (FC) (HIV-1 HXB2 K103N variant; fold change: ratio of potency against HXB2 K103N and parental HXB2): 1.7
K103N (FC) (HIV-1 HXB2 K103N variant; [5]): 1.7
Papp A→B at 120 min ([3]; supplement CSV): 3.1 ×10⁻⁶ cm/s
Papp A→B at 120 min ([3]; apparent permeability coefficient, A to B, pH 7.4): 3.1 ×10⁻⁶ cm/s

Cc1cc(CO)cc(C)c1N1CCC(=O)Nc2cnc(Nc3ccc(C#N)cc3)nc21 [Compound 39, 4-({9-[4-(hydroxymethyl)-2,6-dimethylphenyl]-6-oxo-5H,6H,7H,8H,9H-pyrimido[4,5-b][1,4]diazepin-2-yl}amino)benzonitrile]
CC50 at 120 h (in vitro): 15900 nM
EC50 (HIV-1 (IIIB strain); [4]): 198 nM
